Experimental data as given in paper PMC6163054 (Chembiochem : a European journal of chemical biology, 2018).

Biological target: Fluc (firefly luciferase) (Photinus pyralis, UniProt P08659)
Assay: bioluminescence kinetics, luminometer, nonlinear regression
Assay type: biochemical
Settings: ATP, Mg2+, pH 7.6; text says low millimolar range

Fluc (firefly luciferase), sequence (P08659 whole entry): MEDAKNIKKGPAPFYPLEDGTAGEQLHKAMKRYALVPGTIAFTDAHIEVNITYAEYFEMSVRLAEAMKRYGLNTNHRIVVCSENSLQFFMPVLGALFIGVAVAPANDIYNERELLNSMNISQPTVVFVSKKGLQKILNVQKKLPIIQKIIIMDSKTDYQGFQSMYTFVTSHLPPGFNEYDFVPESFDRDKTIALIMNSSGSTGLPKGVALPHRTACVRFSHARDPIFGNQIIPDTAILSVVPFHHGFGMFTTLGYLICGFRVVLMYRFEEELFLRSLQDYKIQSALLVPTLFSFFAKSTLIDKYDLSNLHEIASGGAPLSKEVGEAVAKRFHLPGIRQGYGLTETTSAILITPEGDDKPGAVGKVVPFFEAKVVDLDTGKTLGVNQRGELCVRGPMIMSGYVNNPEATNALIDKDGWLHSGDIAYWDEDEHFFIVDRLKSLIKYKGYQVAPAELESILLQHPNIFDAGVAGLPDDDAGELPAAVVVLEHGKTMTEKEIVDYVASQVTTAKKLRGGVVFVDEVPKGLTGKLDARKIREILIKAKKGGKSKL

SMILES	apparent Km
O=C(O)[C@H]1CSC(c2nc3c[nH]c(=O)cc3s2)=N1 [compound 3, (S)-2-(Thiazolo[4,5-c]pyridin-6(5H)-one-2-yl)-4,5-dihydrothiazole-4-carboxylic acid]	The apparent Km values measured for both luciferins were in the low millimolar range
O=C(O)[C@H]1CSC(c2nc3ccc(=O)[nH]c3s2)=N1 [compound 4, (S)-2-(Thiazolo[5,4-b]pyridin-5(4H)-one-2-yl)-4,5-dihydrothiazole-4-carboxylic acid]	The apparent Km values measured for both luciferins were in the low millimolar range
